The values that follow come from ChEMBL document CHEMBL3739396, “5-Aryl-1-imino-1-oxo-[1,2,4]thiadiazines” (ACS Med Chem Lett, 2015).

pIC50: −log10 of the molar value.

Beta-secretase 1, sequence (P56817 whole entry): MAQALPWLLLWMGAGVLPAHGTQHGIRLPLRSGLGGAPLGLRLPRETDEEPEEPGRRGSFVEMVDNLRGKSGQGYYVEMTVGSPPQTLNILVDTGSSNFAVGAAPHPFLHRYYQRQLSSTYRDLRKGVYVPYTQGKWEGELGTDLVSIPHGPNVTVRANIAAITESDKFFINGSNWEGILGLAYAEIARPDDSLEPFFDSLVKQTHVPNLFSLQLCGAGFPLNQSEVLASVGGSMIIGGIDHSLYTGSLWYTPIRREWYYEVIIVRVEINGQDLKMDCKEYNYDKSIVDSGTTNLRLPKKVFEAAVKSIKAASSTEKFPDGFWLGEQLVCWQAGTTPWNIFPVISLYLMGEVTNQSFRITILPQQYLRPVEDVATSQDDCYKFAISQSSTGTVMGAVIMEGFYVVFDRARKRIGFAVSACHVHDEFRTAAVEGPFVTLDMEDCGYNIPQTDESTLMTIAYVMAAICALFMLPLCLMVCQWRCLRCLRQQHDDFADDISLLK

The assay has as its target Beta-secretase 1 (Homo sapiens, UniProt P56817). Put plainly: Inhibition of human BACE1 in HEK293 cells expressing APP assessed as decrease in amyloid beta-40 level after 18 to 20 hrs. The format is cell-based.
What is called pIC50 is the IC50 on a negative log10 scale, so that one unit is a factor of ten. On to `C[C@@]1(c2cc(-c3cn(-c4ccc(C#N)cn4)nn3)ccc2F)C[S@]2(=O)=NCCCCN2C(N)=N1`, for which the negative-log IC50 (pIC50) was 8.02.
The figure for `C[C@@]1(c2cc(-c3cc(-c4ncc(Cl)cn4)no3)ccc2F)C[S@]2(=O)=NCCCCN2C(N)=N1` is 8.02; for `C[C@@]1(c2cc(NC(=O)c3ccc(C#N)cn3)ccc2F)C[S@]2(=O)=NCCCCN2C(N)=N1` it is 8.70.
